From paper PMC6851853, “Characterization of P. falciparum dipeptidyl aminopeptidase 3 specificity identifies differences in amino acid preferences between peptide‐based substrates and covalent inhibitors” (The Febs Journal, 2019)

Columns and labels:
DPAP1 [1] = target: T1, DPAP1 (Plasmodium falciparum, UniProt Q8IIJ9); test: biochemical; set-up: species or system P. falciparum parasite lysate; continuous fluorogenic assay, time-dependent inactivation of DPAP1 in diluted parasite lysate, Pro-Arg-AMC 20 uM; conditions: for kinact: read-out: DPAP1 / k inact ·10^3; for kinact/KI: read-out: DPAP1 / k inact/K i ·10^−3 (M ^−1·s^−1)
T1 sequence (Q8IIJ9 28-209): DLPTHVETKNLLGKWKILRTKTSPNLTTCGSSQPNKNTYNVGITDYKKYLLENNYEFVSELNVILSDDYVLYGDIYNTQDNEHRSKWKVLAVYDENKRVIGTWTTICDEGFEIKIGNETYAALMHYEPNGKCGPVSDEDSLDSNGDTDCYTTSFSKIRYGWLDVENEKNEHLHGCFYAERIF
T1 sequence (Q8IIJ9 370-599): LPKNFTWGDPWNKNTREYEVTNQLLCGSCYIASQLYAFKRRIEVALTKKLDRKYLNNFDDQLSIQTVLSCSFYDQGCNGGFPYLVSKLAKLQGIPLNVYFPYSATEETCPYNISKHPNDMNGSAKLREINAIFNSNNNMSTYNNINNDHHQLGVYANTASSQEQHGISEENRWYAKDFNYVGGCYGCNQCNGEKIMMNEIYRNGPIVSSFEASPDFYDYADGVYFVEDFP
T1 sequence (Q8IIJ9 600-700): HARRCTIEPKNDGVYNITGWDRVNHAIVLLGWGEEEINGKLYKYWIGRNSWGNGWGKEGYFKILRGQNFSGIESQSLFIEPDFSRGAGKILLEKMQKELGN
Experimental: (§1) Inhibition of DPAP1 was directly measured in parasite lysates diluted 100‐fold in assay buffer using the DPAP1‐selective substrate Pro‐Arg‐AMC 42; 0.2 nM of […] was used for these inhibition studies. Note that because DPAP1 inhibition was directly measured in parasite lysates, inhibitors might have been partially inactivated through the action of aminopeptidases present in the lysates during the course of the assay. Therefore, the potency of the inhibitors might have been underestimated. […] The data were analysed according to the irreversible inhibition model shown in Eqn. 1. First, the progress curves (fluorescent units vs. time) were fitted to Eqn. 5, where F is the measured fluorescence at time t, F 0 the initial fluorescence, V 0 the initial turnover rate, and k obs the observed […] rate constant of inhibition measured at each inhibitor concentration 64.

CatC (bovine) = target: T2, CatC (bovine) (Bos taurus, UniProt Q3ZCJ8); test: biochemical; set-up: continuous fluorogenic assay, time-dependent inactivation of 0.2 nM CatC, Gly-Arg-AMC 15 uM; conditions: for kinact: read-out: CatC / k inact ·10^3; for kinact/KI: read-out: CatC / k inact/K i ·10^−3 (M ^−1·s^−1)
T2 construct: gene CTSC; native, purified to homogeneity from bovine spleen
Experimental: as §1

DPAP3 [2] = target: T3, DPAP3 (Plasmodium falciparum, UniProt Q8I1Y2); test: biochemical; set-up: gene PF3D7_0404700; recombinant, baculovirus/SF9 insect cells, purified from culture supernatant by ion exchange, Ni-NTA and size exclusion; active-site titrated; continuous fluorogenic assay, time-dependent inactivation of 0.2 nM recombinant DPAP3, Met-nLeu(o-Bzl)-ACC 2.2 uM; conditions: for kinact: read-out: DPAP3 / k inact ·10^3; for kinact/KI: read-out: DPAP3 / k inact/K i ·10^−3 (M ^−1·s^−1)
Experimental: The data were analysed according to the irreversible inhibition model shown in Eqn. 1. First, the progress curves (fluorescent units vs. time) were fitted to Eqn. 5, where F is the measured fluorescence at time t, F 0 the initial fluorescence, V 0 the initial turnover rate, and k obs the observed […] rate constant of inhibition measured at each inhibitor concentration 64. […] The inhibition constants are reported in Fig. 3C and Table 2 (See also Fig. S2 for representative fits). Only one inhibitor, containing an amino‐1‐methyl‐benzyl (Amb) group in P2, was not able to inhibit DPAP3 in a time‐dependent manner under our assay conditions (Fig. 3D). This is probably due to the fact that this extended and rigid P2 AA (Fig. 3E) might prevent proper positioning of the [compound left out] group into the active site of DPAP3 to allow covalent modification of the catalytic cysteine. For this compound, a K i value for reversible inhibition was measured.
Target sequence in this assay (Q8I1Y2 entry or part of it): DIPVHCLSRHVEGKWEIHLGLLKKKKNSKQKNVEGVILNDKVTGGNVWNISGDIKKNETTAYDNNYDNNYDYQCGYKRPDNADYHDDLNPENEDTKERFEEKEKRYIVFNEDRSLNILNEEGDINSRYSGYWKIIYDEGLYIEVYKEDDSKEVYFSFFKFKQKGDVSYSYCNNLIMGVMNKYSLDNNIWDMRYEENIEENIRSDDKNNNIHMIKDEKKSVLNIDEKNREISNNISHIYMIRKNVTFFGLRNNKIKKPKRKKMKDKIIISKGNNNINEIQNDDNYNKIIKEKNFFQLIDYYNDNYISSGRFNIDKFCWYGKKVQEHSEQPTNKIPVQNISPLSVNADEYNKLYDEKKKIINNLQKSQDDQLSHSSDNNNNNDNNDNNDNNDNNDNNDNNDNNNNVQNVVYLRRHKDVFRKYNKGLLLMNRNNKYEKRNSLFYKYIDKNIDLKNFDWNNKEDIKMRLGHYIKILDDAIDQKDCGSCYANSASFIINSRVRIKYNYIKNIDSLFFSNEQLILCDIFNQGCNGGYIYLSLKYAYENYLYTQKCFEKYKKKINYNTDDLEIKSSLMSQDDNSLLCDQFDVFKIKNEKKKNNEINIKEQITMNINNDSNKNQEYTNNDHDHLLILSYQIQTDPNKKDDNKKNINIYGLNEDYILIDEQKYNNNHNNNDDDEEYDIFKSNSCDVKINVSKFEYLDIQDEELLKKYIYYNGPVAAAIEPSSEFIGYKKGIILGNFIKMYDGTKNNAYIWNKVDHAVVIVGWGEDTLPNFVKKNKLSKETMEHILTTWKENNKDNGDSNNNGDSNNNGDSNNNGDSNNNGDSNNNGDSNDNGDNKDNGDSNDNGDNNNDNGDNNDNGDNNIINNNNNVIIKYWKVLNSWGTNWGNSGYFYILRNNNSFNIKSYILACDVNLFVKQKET

DPAP3 [3] = target: T3, DPAP3; test: cell-based; set-up: native enzyme in live parasites (mature schizonts); species or system P. falciparum mature schizonts in red blood cells; competitive activity-based probe FY01 labelling in intact parasites, in-gel fluorescence densitometry; conditions: live parasites, 30 min pretreatment
Experimental: Live parasites were treated with different concentrations of inhibitor for 30 min, and the residual level of DPAPs and FPs activities were labelled with FY01 and quantified by densitometry (Fig. 6A). […] Compounds with a P2 Trp or Tyr(NO2) are highly specific for DPAP3 in intact parasites. […] Inhibitors need to cross four membranes to reach DPAP3: the RBC, parasitophorous vacuole and parasite plasma membranes, plus the membrane of the apical organelle where DPAP3 resides 21. (The parasitophorous vacuole is a membrane‐bound structure within which the parasite grows and multiplies isolated from the RBC cytosol.) However, crossing of the parasitophorous vacuole membrane is not likely to be a limiting factor to reach DPAP3 since this membrane is generally permeable to small molecules. It is also likely that the apparent increased potency of Trp‐hPG‐VS in live parasites might be due to its accumulation into the DPAP3 acidic organelle via protonation of its free amine. However, we predict that this lysosomotropic effect likely occurs for all DPAP inhibitors presented here.  Figure 6 Selective inhibition of DPAP1 or DPAP3 in live parasites. Intact mature schizonts were pretreated for 30 min with increasing concentrations of inhibitor followed by 1 h treatment with FY01. Samples were then run in an SDS/PAGE gel and the in‐gel fluorescence measured using a fluorescence scanner. (A) Representative gel images obtained for each of the inhibitors. Fluorescent bands corresponding to the different cysteine proteases labelled by the probe are indicated with arrowheads (DPAP3, red; FPs, green; DPAP1, blue). (B) The fluorescence intensity of each of the indicated bands was quantified by densitometry using ImageJ, and the fluorescence values normalized to the DMSO control. […] Three technical replicates were performed; dose responses for a representative replicate are shown.
Target sequence in this assay (Q8I1Y2 entry or part of it): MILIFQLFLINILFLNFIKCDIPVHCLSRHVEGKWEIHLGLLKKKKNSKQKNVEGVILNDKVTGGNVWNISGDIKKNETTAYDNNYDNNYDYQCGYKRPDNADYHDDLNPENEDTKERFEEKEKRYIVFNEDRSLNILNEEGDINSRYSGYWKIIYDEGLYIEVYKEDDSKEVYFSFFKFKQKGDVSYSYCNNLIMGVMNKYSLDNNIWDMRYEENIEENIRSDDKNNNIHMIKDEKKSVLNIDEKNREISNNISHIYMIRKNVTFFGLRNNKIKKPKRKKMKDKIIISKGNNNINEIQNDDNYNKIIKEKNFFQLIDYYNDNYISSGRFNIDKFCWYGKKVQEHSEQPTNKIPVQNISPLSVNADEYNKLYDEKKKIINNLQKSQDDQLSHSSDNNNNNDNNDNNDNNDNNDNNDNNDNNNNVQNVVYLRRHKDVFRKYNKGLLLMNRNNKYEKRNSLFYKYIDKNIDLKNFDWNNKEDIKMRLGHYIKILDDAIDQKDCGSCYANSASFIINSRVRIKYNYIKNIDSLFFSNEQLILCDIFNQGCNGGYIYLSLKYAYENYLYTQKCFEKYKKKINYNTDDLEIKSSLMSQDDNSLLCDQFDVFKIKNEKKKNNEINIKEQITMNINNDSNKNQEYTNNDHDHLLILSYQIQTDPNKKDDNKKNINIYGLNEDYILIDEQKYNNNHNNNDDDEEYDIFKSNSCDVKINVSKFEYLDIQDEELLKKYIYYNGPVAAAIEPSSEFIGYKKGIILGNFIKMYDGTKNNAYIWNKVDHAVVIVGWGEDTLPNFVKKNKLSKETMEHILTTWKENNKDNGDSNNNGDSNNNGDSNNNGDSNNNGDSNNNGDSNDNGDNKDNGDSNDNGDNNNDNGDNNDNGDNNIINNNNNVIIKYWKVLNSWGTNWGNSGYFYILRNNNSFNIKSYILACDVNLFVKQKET

DPAP1 [4] = target: T4, DPAP1 (Plasmodium falciparum, UniProt Q8IIJ9); test: cell-based; set-up: species or system P. falciparum mature schizonts in red blood cells; competitive activity-based probe FY01 labelling in intact parasites, in-gel fluorescence densitometry; conditions: live parasites, 30 min pretreatment
T4 construct: native enzyme in live parasites (mature schizonts)
T4 sequence (Q8IIJ9 1-700): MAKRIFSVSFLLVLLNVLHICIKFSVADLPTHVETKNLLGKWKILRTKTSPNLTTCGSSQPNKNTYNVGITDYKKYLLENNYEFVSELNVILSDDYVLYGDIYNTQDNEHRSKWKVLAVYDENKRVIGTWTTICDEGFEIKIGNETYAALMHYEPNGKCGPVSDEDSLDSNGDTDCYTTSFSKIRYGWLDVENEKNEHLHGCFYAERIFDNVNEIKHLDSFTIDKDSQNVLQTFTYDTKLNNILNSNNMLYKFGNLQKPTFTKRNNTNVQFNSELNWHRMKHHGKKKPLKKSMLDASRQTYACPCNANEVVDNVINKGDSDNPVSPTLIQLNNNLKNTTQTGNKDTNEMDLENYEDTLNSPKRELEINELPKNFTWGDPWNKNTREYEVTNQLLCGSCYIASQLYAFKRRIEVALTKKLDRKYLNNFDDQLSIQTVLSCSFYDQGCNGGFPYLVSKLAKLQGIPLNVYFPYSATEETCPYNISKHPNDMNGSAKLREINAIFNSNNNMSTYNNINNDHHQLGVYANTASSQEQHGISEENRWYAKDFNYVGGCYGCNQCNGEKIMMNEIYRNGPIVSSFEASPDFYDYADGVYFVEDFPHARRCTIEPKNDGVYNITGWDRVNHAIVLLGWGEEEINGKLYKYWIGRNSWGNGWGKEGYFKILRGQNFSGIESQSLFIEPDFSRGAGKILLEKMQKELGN
Experimental: (§2) Live parasites were treated with different concentrations of inhibitor for 30 min, and the residual level of DPAPs and FPs activities were labelled with FY01 and quantified by densitometry (Fig. 6A). […] Compounds with a P2 Trp or Tyr(NO2) are highly specific for DPAP3 in intact parasites. […] Inhibitors need to cross four membranes to reach DPAP3: the RBC, parasitophorous vacuole and parasite plasma membranes, plus the membrane of the apical organelle where DPAP3 resides 21. (The parasitophorous vacuole is a membrane‐bound structure within which the parasite grows and multiplies isolated from the RBC cytosol.) However, crossing of the parasitophorous vacuole membrane is not likely to be a limiting factor to reach DPAP3 since this membrane is generally permeable to small molecules. It is also likely that the apparent increased potency of Trp‐hPG‐VS in live parasites might be due to its accumulation into the DPAP3 acidic organelle via protonation of its free amine. However, we predict that this lysosomotropic effect likely occurs for all DPAP inhibitors presented here. […] Samples were then run in an SDS/PAGE gel and the in‐gel fluorescence measured using a fluorescence scanner. […] (B) The fluorescence intensity of each of the indicated bands was quantified by densitometry using ImageJ, and the fluorescence values normalized to the DMSO control. […]

FP1 = target: T5, FP1 (Plasmodium falciparum, UniProt P25805); test: cell-based; set-up: species or system P. falciparum mature schizonts in red blood cells; competitive activity-based probe FY01 labelling in intact parasites, in-gel fluorescence densitometry; conditions: live parasites, 30 min pretreatment
T5 construct: native falcipain 1 in live parasites (mature schizonts)
Experimental: as §2

T2 sequence (Q3ZCJ8 25-134): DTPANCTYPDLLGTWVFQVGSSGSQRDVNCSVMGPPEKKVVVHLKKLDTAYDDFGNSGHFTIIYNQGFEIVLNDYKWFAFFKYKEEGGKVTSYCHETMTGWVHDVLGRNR
T2 sequence (Q3ZCJ8 231-394): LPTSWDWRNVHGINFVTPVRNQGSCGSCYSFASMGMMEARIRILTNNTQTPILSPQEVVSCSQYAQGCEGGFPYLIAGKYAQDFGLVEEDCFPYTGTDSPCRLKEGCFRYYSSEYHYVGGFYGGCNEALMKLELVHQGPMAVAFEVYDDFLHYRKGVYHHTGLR
T2 sequence (Q3ZCJ8 395-463): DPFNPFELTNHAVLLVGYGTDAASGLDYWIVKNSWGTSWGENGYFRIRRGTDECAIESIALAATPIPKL
T5 sequence (P25805 whole entry): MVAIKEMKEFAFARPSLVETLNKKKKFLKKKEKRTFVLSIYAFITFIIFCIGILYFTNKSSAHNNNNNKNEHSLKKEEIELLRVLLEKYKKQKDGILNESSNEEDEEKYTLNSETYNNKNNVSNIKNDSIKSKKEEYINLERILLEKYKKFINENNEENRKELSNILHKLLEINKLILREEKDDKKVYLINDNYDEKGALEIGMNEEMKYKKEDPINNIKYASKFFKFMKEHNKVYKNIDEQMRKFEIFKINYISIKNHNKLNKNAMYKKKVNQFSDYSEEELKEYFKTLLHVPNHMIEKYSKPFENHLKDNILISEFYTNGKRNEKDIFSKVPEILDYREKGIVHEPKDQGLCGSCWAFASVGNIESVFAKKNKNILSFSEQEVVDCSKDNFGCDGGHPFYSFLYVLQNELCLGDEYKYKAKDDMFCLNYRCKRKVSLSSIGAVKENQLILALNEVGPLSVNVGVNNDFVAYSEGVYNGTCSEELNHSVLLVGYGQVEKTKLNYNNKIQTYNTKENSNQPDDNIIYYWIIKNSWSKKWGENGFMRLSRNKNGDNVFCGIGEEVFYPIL

Structure (SMILES)	kinact (DPAP1 [1]) [s⁻¹]	kinact/KI (DPAP1 [1]) [M⁻¹ s⁻¹]	kinact (CatC (bovine)) [s⁻¹]	kinact/KI (CatC (bovine)) [M⁻¹ s⁻¹]	kinact (DPAP3 [2]) [s⁻¹]	kinact/KI (DPAP3 [2]) [M⁻¹ s⁻¹]	IC50 (DPAP3 [3]) [nM]	IC50 (DPAP1 [4]) [nM]	IC50 (FP1) [nM]
N[C@@H](Cc1ccc2ccccc2c1)C(=O)N[C@H](/C=C/S(=O)(=O)c1ccccc1)CCc1ccccc1 [2Nal‐hPhe‐VS]	0.0067 ± 0.0002	200 ± 5	0.0037 ± 0.0002	900 ± 100	0.00259 ± 7e-05	10200 ± 500			
N[C@@H](Cc1ccc2ccccc2c1)C(=O)N[C@H](/C=C/S(=O)(=O)c1ccccc1)CCCCOCc1ccccc1 [2Nal‐nLeu(o‐Bzl)‐VS]	0.005 ± 0.0017	190 ± 50	0.0024 ± 0.0006	1370 ± 90	0.006 ± 0.0007	2200 ± 300			
N[C@H](Cc1c[nH]c2ccccc12)C(=O)N[C@H](/C=C/S(=O)(=O)c1ccccc1)CCc1ccccc1 [D‐Trp‐hPhe‐VS]	0.0027 ± 0.0002	26 ± 1	0.0026 ± 0.0001	620 ± 70	0.0017 ± 0.0006	320 ± 80			
N[C@H](Cc1c[nH]c2ccccc12)C(=O)N[C@H](/C=C/S(=O)(=O)c1ccccc1)CCCCOCc1ccccc1 [D‐Trp‐nLeu(o‐Bzl)‐VS]	0.0055 ± 0.0007	44 ± 2	0.00197 ± 6e-05	1700 ± 100	0.0036 ± 0.0002	470 ± 10	2700 ± 1600		
N[C@H](C(=O)N[C@H](/C=C/S(=O)(=O)c1ccccc1)CCc1ccccc1)C1Cc2ccccc2C1 [Igl‐hPhe‐VS]	0.0027 ± 0.0001	500 ± 30	0.0058 ± 0.0003	18000 ± 3000	0.0021 ± 0.0007	205000 ± 22000			
N[C@H](C(=O)N[C@H](/C=C/S(=O)(=O)c1ccccc1)CCCCOCc1ccccc1)C1Cc2ccccc2C1 [Igl‐nLeu(o‐Bzl)‐VS]	0.0041 ± 0.0002	860 ± 50	0.00148 ± 6e-05	135000 ± 14000	0.0056 ± 0.0004	35000 ± 4500			
N[C@@H](Cc1c[nH]c2ccccc12)C(=O)N[C@H](/C=C/S(=O)(=O)c1ccccc1)CCc1ccccc1 [L‐Trp‐hPhe‐VS]	0.0017 ± 0.0001	3200 ± 300	0.0022 ± 9e-05	131000 ± 15000	0.0033 ± 0.0004	52000 ± 7000			
N[C@@H](Cc1c[nH]c2ccccc12)C(=O)N[C@H](/C=C/S(=O)(=O)c1ccccc1)CCCCOCc1ccccc1 [L‐Trp‐nLeu(o‐Bzl)‐VS]	0.0022 ± 0.0001	5800 ± 600	0.00174 ± 3e-05	355000 ± 18000	0.0032 ± 0.0003	826000 ± 193000	760 ± 150		
O=C(N[C@H](C=CS(=O)(=O)c1ccccc1)CCc1ccccc1)[C@@H]1CCCN1 [Pro‐hPhe‐VS]	0.0021 ± 0.0002	470000 ± 35000	0.00145 ± 7e-05	42000 ± 5000	0.0035 ± 0.0002	4100 ± 300			
N[C@@H](Cc1ccc(O)c([N+](=O)[O-])c1)C(=O)N[C@H](C=CS(=O)(=O)c1ccccc1)CCc1ccccc1 [Tyr(NO2)‐hPhe‐VS]	0.0038 ± 0.001	150 ± 50	0.0032 ± 0.0006	54 ± 8	0.00226 ± 5e-05	950000 ± 74000			
N[C@@H](Cc1ccc(O)c([N+](=O)[O-])c1)C(=O)N[C@H](/C=C/S(=O)(=O)c1ccccc1)CCCCOCc1ccccc1 [Tyr(NO2)‐nLeu(o‐Bzl)‐VS]	0.0026 ± 0.0003	1100 ± 300	0.0029 ± 0.0002	380 ± 50	0.0027 ± 0.0002	51000 ± 10000	730 ± 170		
O=C(N[C@H](/C=C/S(=O)(=O)c1ccccc1)CCc1ccccc1)[C@@H]1CCCCN1 [hPro‐hPhe‐VS]	0.0048 ± 0.0006	1.23e+06 ± 400000	0.00167 ± 8e-05	76000 ± 800	0.0021 ± 0.0001	69000 ± 13000	160 ± 50	80 ± 7	350 ± 80
O=C(N[C@H](/C=C/S(=O)(=O)c1ccccc1)CCCCOCc1ccccc1)[C@@H]1CCCCN1 [hPro‐nLeu(o‐Bzl)‐VS]	0.0029 ± 0.0003	3.56e+06 ± 150000	0.00167 ± 3e-05	150000 ± 6000	0.002 ± 0.0001	53000 ± 6500			
CCC[C@H](N)C(=O)N[C@H](/C=C/S(=O)(=O)c1ccccc1)CCc1ccccc1 [nVal‐hPhe‐VS]	0.002 ± 0.0001	3.16e+06 ± 750000	0.0022 ± 0.0001	5.83e+06 ± 970000	0.0026 ± 0.0004	940000 ± 160000			
